Like-named read-outs stand apart in the source and are kept apart here.
What was measured:
[1] = molecular target: human recombinant dopamine D2 receptor (Homo sapiens (Human), UniProt P14416); assay: Test of binding inhibition for dopamine D2 receptor ([3H]-Methylspiperone SPA); conditions: Jump-In HEK cell membranes, read-out: hD2_Ki
Procedure, shortened: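 Scintillation proximity competition binding of [3H]-Methylspiperone to Jump-In HEK membranes expressing human D2 (2 μg protein/well) on WGA SPA beads (0.2 mg/well), 120 min at 25° C.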

[2] = molecular target: human recombinant dopamine D3 receptor (Homo sapiens (Human), UniProt P35462); assay: Test of binding inhibition for dopamine D3 receptor ([3H]-Methylspiperone SPA); conditions: Jump-In HEK cell membranes, 2 nM [3H]-Methylspiperone, 120 min at 25° C.; read-out: hD3_Ki
Procedure, shortened: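 SPA radioligand binding on Jump-In HEK membranes expressing human D3 receptor (4 µg/well) with 2 nM [3H]-methylspiperone (final), incubated 120 min at 25 °C. Non-specific binding defined with 10 µM butaclamol. Percent inhibition computed against total and non-specific binding; Ki from dose-response curves.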

hERG channel (IKr) = hERG channel (IKr) (Homo sapiens (Human), UniProt Q12809); assay: hERG test (whole cell patch clamp, IKr); format: cell-based; conditions: human, CHO cells expressing hERG channel, pH 7.4, 3 μM, tail peak current
Text: Test Example 10: hERG Test
For the purpose of assessing risk of an electrocardiogram QT interval prolongation of the compound of the present invention, effects of the compound of the present invention on delayed rectifier K+ current (IKr), which plays an important role in the ventricular repolarization process, was studied using CHO cells expressing human ether-a-go-go related gene (hERG) channel.
After a cell was retained at a membrane potential of −80 mV by whole cell patch clamp method using an automated patch clamp system (QPatch; Sophion Bioscience A/S) and gave a leak potential of −50 mV, IKr induced by depolarization pulse stimulation at +20 mV for 2 seconds and, further, repolarization pulse stimulation at −50 mV for 2 seconds, was recorded. After the generated current was stabilized, extracellular solution (NaCl: 145 mmol/L, KCl: 4 mmol/L, CaCl2): 2 mmol/L, MgCl2: 1 mmol/L, glucose: 10 mmol/L, HEPES (4-(2-hydroxyethyl)-1-piperazineethanesulfonic acid): 10 mmol/L, pH=7.4), in which the compound of the present invention had been dissolved at an objective concentration in the extracellular solution, was applied to the cell at room temperature for 7 minutes or more. From the recording IKr, an absolute value of the tail peak current was measured based on the current value at the resting membrane potential using analysis software (QPatch Assay software; Sophion Bioscience A/S). Further, the % inhibition of tail peak current for the compound of the present invention relative to the tail peak current after application of the solution (0.1% dimethyl sulfoxide solution) was calculated to assess influence of the compound of the present invention on IKr.

[3] = Solubility test (1% DMSO addition, JP-1 fluid or JP-2 fluid); format: physicochemical; conditions: 25 °C, kinetic from dmso stock
Experimental: Test Example 11: Solubility Test The solubility of the compound of the present invention was determined under 1% DMSO addition conditions. A 10 mmol/L solution of the compound was prepared with DMSO. 2 μL of the solution of the compound of the present invention was respectively added to 198 μL of JP-1 fluid or JP-2 fluid, or 6 μL of the solution of the compound of the present invention was respectively added to 594 μL of JP-1 fluid or JP-2 fluid. The mixture was left standing for 16 hours at 25° C. (condition 1) or shaking at room temperature for 3 hours (condition 2), and the mixture was vacuum-filtered. The filtrates were diluted 10- or 100-fold with methanol/water=1/[…]) or acetonitrile/methanol/water=1/1/[…]/V), and concentrations in the filtrates were measured by the absolute calibration curve method using LC/MS or solid-phase extraction (SPE)/MS. The dilution rate or dilution solvent was changed as necessary. The composition of the JP-1 fluid was as below. Water was added to 2.0 g of sodium chloride and 7.0 mL of hydrochloric acid to reach 1000 mL. The composition of the JP-2 fluid was as below. Composition 1. 3.40 g of potassium dihydrogen phosphate and 3.55 g of anhydrous disodium hydrogen phosphate were dissolved in water to reach 1000 mL. Composition 2. 1 volume of water was added to 1 volume of the solution in which 3.40 g of potassium dihydrogen phosphate and 3.55 g of anhydrous disodium hydrogen phosphate were dissolved in water to reach 1000 mL.

[4] = 1.2 nM [3H]-Methylspiperone, 120 min at 25° C.
[5] = pH 1.2, simulated gastric fluid, JP-1 fluid, read-out: Solubility JP-1
[6] = pH 6.8, aqueous buffer, JP-2 fluid, read-out: Solubility JP-2

Sequence of human recombinant dopamine D2 receptor (P14416 whole entry): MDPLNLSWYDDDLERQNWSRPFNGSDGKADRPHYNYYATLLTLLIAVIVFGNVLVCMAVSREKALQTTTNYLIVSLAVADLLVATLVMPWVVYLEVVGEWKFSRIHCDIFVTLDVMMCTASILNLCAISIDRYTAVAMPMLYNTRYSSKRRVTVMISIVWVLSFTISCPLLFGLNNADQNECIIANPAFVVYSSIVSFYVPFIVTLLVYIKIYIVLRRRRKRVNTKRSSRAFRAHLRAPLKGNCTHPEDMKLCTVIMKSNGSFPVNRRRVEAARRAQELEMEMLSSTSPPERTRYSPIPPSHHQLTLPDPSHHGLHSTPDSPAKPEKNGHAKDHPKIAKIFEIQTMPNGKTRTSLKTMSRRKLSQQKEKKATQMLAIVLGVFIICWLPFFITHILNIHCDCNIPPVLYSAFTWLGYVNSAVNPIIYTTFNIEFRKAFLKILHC
Sequence of human recombinant dopamine D3 receptor (P35462 whole entry): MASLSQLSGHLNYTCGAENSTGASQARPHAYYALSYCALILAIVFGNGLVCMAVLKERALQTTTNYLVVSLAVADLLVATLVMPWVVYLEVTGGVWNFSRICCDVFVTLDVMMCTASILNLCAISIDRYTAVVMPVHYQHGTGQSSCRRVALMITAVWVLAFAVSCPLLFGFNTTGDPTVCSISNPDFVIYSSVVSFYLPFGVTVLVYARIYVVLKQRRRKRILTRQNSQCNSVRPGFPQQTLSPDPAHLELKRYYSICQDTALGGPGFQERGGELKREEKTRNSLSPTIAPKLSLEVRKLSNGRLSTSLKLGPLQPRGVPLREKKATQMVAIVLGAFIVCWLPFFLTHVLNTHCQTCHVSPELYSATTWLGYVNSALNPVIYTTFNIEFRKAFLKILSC
Sequence of hERG channel (IKr) (Q12809 whole entry): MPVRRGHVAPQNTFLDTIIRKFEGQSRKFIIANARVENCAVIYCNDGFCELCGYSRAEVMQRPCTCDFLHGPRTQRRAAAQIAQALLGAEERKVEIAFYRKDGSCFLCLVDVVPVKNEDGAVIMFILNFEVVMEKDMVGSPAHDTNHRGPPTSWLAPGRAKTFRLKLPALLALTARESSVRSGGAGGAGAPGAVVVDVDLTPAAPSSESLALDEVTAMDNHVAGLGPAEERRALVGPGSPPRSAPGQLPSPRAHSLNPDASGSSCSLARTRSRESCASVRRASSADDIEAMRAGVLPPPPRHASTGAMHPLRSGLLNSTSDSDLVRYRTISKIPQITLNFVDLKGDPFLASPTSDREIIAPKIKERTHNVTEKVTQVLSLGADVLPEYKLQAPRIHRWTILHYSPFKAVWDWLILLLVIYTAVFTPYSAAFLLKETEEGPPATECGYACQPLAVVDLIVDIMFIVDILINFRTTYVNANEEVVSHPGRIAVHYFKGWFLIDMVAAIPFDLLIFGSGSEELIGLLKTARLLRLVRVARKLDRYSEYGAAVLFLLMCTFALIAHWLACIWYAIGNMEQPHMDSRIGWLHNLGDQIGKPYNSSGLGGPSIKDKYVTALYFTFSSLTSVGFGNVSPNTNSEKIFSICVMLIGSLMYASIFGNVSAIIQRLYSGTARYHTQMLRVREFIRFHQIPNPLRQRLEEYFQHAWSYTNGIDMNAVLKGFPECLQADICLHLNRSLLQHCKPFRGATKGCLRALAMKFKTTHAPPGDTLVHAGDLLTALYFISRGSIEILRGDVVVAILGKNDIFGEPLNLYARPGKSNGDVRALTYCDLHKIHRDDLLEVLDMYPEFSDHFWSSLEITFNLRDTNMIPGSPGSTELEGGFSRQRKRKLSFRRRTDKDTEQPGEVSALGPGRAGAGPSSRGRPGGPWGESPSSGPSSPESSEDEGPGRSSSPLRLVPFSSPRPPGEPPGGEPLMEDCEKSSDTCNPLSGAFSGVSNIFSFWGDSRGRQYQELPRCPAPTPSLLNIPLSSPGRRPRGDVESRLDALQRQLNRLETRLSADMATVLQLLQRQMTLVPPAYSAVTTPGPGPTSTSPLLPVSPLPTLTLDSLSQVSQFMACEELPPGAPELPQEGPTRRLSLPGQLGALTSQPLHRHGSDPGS

SMILES	Ki [1, 4] [nM]	Ki [2] [nM]	inhibition at 3 µM (hERG channel (IKr)) [%]	solubility [3, 5] [µM]	solubility [3, 6] [µM]	Ki ([1]; [3H]-Methylspiperone 1.2 nM) [nM]
O=C(N[C@H]1CC[C@H](CCN2CCc3nc(OCC(F)(F)F)sc3CC2)CC1)c1cccnc1C(F)F [Example I-048]	390	0.048	3.52			
Cn1c(C(=O)N[C@H]2CC[C@H](CCN3CCc4nc(OCC(C)(F)F)sc4CC3)CC2)cccc1=O [Example I-056]	490	0.24	10.7			
Cn1cc(CC(=O)N[C@H]2CC[C@](F)(CCN3CCc4nc(OCC(F)F)sc4CC3)CC2)cn1 [Example I-059]	> 1700	0.69	6.72			
Cc1ncc(CC(=O)N[C@H]2CC[C@](F)(CCN3CCc4nc(OCC(F)F)sc4CC3)CC2)o1 [Example I-060]	1400	0.59	17.7			
Cn1cc2ccc(C(=O)N[C@H]3CC[C@H](CCN4CCc5nc(OCC(C)(F)F)sc5CC4)OC3)cc2n1 [Example I-066]	770	0.37	14.3			
Cc1ncc(OCC(=O)N[C@H]2CC[C@H](CCN3CCc4sc(C5CC(F)(F)C5)nc4C3)CC2)cn1 [Example I-069]	670	0.49	34.2			
Cc1nnc(CC(=O)N[C@H]2CC[C@H](CCN3CCc4sc(C5CC(F)(F)C5)nc4C3)CC2)s1 [Example I-071]	450	0.16	16.6			
Cc1nnc(CC(=O)N[C@H]2CC[C@](F)(CCN3CCc4nc(OCC(C)(F)F)sc4CC3)CC2)s1 [Example I-073]	450	0.29	25.9			
Cn1cc(/C=C/C(=O)N[C@H]2CC[C@](F)(CCN3CCc4nc(OCC(C)(F)F)sc4CC3)CC2)cn1 [Example I-074]	63	0.025	31			
Cn1cc(OCC(=O)N[C@H]2CC[C@](F)(CCN3CCc4nc(OCC(C)(F)F)sc4CC3)CC2)cn1 [Example I-075]	240	0.22	33.8			
CC[C@@H](C)Oc1ccc2c(n1)CCN(CC[C@H]1CC[C@H](NC(=O)c3cccc4nn(C)cc34)CC1)CC2 [Example I-076]	> 1900	0.1	13.4			
Cn1cc2c(C(=O)NN3CCC(CCN4CCc5sc(OCC(C)(F)F)nc5C4)CC3)cccc2n1 [Example I-077]	> 1800	0.38	4.33			
Cn1c(C(=O)NN2CCC(CCN3CCc4sc(OCC(F)(F)F)nc4C3)CC2)cccc1=O [Example I-080]	2100	0.81	5.68			
Cn1cc2c(C(=O)NN3CCC(CCN4CCc5sc(OCC(F)(F)F)nc5C4)CC3)ccc(F)c2n1 [Example I-081]	640	0.2	5.59			
Cc1ncc(/C=C/C(=O)N[C@H]2CC[C@H](CCN3CCc4nc(OC5CC(F)(F)C5)sc4CC3)CC2)cn1 [Example I-082]	670	0.086	11.1			
C[C@@H](Oc1nc2c(s1)CCN(CC[C@H]1CC[C@H](NC(=O)c3cccc4nn(C)cc34)CC1)CC2)C(F)(F)F [Example I-083]	> 2200	0.16	25.1			
CCc1ncccc1C(=O)N[C@H]1CC[C@H](CCN2CCc3ccc(OC4CCC4)nc3CC2)CC1 [Example I-088]	1300	0.8	32			
Cc1ncccc1C(=O)N[C@H]1CC[C@H](CCN2CCc3nc(OCCC(F)(F)F)sc3CC2)CC1 [Example I-099]	1600	0.97	29.4			

SMILES	Ki [1, 4] [nM]	Ki [2] [nM]	inhibition at 3 µM (hERG channel (IKr)) [%]	solubility [3, 5] [µM]	solubility [3, 6] [µM]	Ki ([1]; [3H]-Methylspiperone 1.2 nM) [nM]
Cc1nnc(CC(=O)N[C@H]2CC[C@H](CCN3CCc4nc(OCCC(F)(F)F)sc4CC3)CC2)o1 [Example I-100]	1500	0.72	33.9			
Cn1cc(CC(=O)N[C@H]2CC[C@H](CCN3CCc4nc(OCCC(F)(F)F)sc4CC3)CC2)cn1 [Example I-101]	2200	0.3	34.9			
Cc1ncc(CC(=O)N[C@H]2CC[C@H](CCN3CCc4nc(OCCC(F)(F)F)sc4CC3)CC2)o1 [Example I-102]	670	0.13	32.2			
Cn1cc2c(C(=O)N[C@H]3CC[C@H](CCN4CCc5sc(OCC(C)(F)F)nc5C4)CC3)c(F)ccc2n1 [Example I-103]	340	0.17	26			
Cn1cc(CC(=O)N[C@H]2CC[C@](F)(CCN3CCc4ccc(OC5CCC5)nc4CC3)CC2)cn1 [Example I-104]	> 2300	0.68	16.3			
Cc1cnc(CC(=O)N[C@H]2CC[C@](F)(CCN3CCc4ccc(OC5CCC5)nc4CC3)CC2)o1 [Example I-105]	> 2300	0.96	30.1			
Cc1nc(CC(=O)N[C@H]2CC[C@H](CCN3CCc4nc(OCC(F)(F)F)sc4CC3)CC2)n(C)n1 [Example I-107]	1000	0.54	3.75			
CC[C@@H](C)Oc1ccc2c(n1)CCN(CC[C@]1(F)CC[C@@H](NC(=O)Cc3nnc(C)o3)CC1)CC2 [Example I-108]	1200	0.89	1.06			
CC[C@@H](C)Oc1ccc2c(n1)CCN(CC[C@]1(F)CC[C@@H](NC(=O)Cc3nnc(C)s3)CC1)CC2 [Example I-109]	610	0.26	27			
CC[C@@H](C)Oc1ccc2c(n1)CCN(CC[C@H]1CC[C@H](NC(=O)Cc3cnn(C)n3)CC1)CC2 [Example I-111]	1600	0.17	14.6			
Cn1c(C(=O)N[C@H]2CC[C@](F)(CCN3CCc4nc(OCCC(F)(F)F)sc4CC3)CC2)cccc1=O [Example I-113]	> 2200	0.87	6.89			
Cc1nc(CC(=O)N[C@H]2CC[C@](F)(CCN3CCc4nc(OCCC(F)(F)F)sc4CC3)CC2)no1 [Example I-114]	> 2200	0.59	29			
COC(CN1CCc2sc(OCC(F)(F)F)nc2C1)[C@H]1CC[C@H](NC(=O)c2cccc3nn(C)cc23)CC1 (some centres unmarked) [Example I-186]	270	0.22	16.8			
Cn1cc2c(C(=O)NC34CCC(CCN5CCc6nc(OCC(F)(F)F)sc6CC5)(CC3)CC4)cccc2n1 [II-8]		0.084		> 50	> 50	1600
Cc1ncc(OCC(=O)NC23CCC(CCN4CCc5nc(OCC(F)(F)F)sc5CC4)(CC2)CC3)cn1 [II-9]		0.12		> 50	> 50	960
Cn1ncc(CC(=O)N[C@H]2CC[C@](F)(CCN3CCc4nc(OCC(F)(F)F)sc4CC3)CC2)n1 [I′-37]		0.18	19.6			1600
Cn1ncc(CC(=O)N[C@H]2CC[C@H](CCN3CCc4nc(OCC(C)(F)F)sc4CC3)CC2)n1 [I′-38]		0.043	20.6			1000
Cn1ncc(CC(=O)N[C@H]2CC[C@](F)(CCN3CCc4nc(OCC(F)F)sc4CC3)CC2)n1 [I′-41]		0.49	24			1900

— US11578084B2, “Condensed ring compounds having dopamine D3 receptor antagonistic effect” (Shionogi & Co., Ltd., priority 2018, dated 2023)
